Patent publication US8192962B2, “Processes for detecting toxic substances” (Daikin Industries, Ltd., priority 2001, dated 2012)

Test system: Transport facilitation protein genes
Test: DNA chip mRNA expression in yeast, transport facilitation protein genes (Table 5)
Assay type: cell-based, Saccharomyces cerevisiae S288C
How it was run: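 Untreated cultures served as reference for log-phase S288C yeast given a growth-inhibiting, non-lethal toxicant dose for 2 h at 25° C. in YPD. Gene expression was measured on a whole-genome DNA chip from Cy3/Cy5-labeled cDNA.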

[Cl][Hg][Cl] [(3), HgCl2]
The level of expressed mRNA in the presence of chemical substance/The level of expressed mRNA in the absence of chemical substance (yeast gene YBL030C): 4.5
The level of expressed mRNA in the presence of chemical substance/The level of expressed mRNA in the absence of chemical substance (yeast gene YBL099W): 3.1
The level of expressed mRNA in the presence of chemical substance/The level of expressed mRNA in the absence of chemical substance (yeast gene YBR052C): 1.5
The level of expressed mRNA in the presence of chemical substance/The level of expressed mRNA in the absence of chemical substance (yeast gene YBR068C): 1.9
The level of expressed mRNA in the presence of chemical substance/The level of expressed mRNA in the absence of chemical substance (yeast gene YBR127C): 2.2
The level of expressed mRNA in the presence of chemical substance/The level of expressed mRNA in the absence of chemical substance (yeast gene YBR132C): 2.4
The level of expressed mRNA in the presence of chemical substance/The level of expressed mRNA in the absence of chemical substance (yeast gene YBR207W): 0.8
The level of expressed mRNA in the presence of chemical substance/The level of expressed mRNA in the absence of chemical substance (yeast gene YBR293W): 1.0
The level of expressed mRNA in the presence of chemical substance/The level of expressed mRNA in the absence of chemical substance (yeast gene YBR294W): 0.9
The level of expressed mRNA in the presence of chemical substance/The level of expressed mRNA in the absence of chemical substance (yeast gene YBR295W): 3.3
The level of expressed mRNA in the presence of chemical substance/The level of expressed mRNA in the absence of chemical substance (yeast gene YBR298C): 1.6
The level of expressed mRNA in the presence of chemical substance/The level of expressed mRNA in the absence of chemical substance (yeast gene YCL025C): 2.5
The level of expressed mRNA in the presence of chemical substance/The level of expressed mRNA in the absence of chemical substance (yeast gene YCL038C): 1.4
The level of expressed mRNA in the presence of chemical substance/The level of expressed mRNA in the absence of chemical substance (yeast gene YCR024C-A): 3.2
The level of expressed mRNA in the presence of chemical substance/The level of expressed mRNA in the absence of chemical substance (yeast gene YCR037C): 0.8
The level of expressed mRNA in the presence of chemical substance/The level of expressed mRNA in the absence of chemical substance (yeast gene YCR098C): 1.7
The level of expressed mRNA in the presence of chemical substance/The level of expressed mRNA in the absence of chemical substance (yeast gene YDL128W): 2.1
The level of expressed mRNA in the presence of chemical substance/The level of expressed mRNA in the absence of chemical substance (yeast gene YDL198C): 2.1
The level of expressed mRNA in the presence of chemical substance/The level of expressed mRNA in the absence of chemical substance (yeast gene YDL210W): 2.7
The level of expressed mRNA in the presence of chemical substance/The level of expressed mRNA in the absence of chemical substance (yeast gene YDL245C): 1.6
The level of expressed mRNA in the presence of chemical substance/The level of expressed mRNA in the absence of chemical substance (yeast gene YDR038C): 3.1
The level of expressed mRNA in the presence of chemical substance/The level of expressed mRNA in the absence of chemical substance (yeast gene YDR039C): 3.2
The level of expressed mRNA in the presence of chemical substance/The level of expressed mRNA in the absence of chemical substance (yeast gene YDR086C): 1.2
The level of expressed mRNA in the presence of chemical substance/The level of expressed mRNA in the absence of chemical substance (yeast gene YDR270W): 1.4
The level of expressed mRNA in the presence of chemical substance/The level of expressed mRNA in the absence of chemical substance (yeast gene YDR298C): 2.6
The level of expressed mRNA in the presence of chemical substance/The level of expressed mRNA in the absence of chemical substance (yeast gene YDR342C): 12.2
The level of expressed mRNA in the presence of chemical substance/The level of expressed mRNA in the absence of chemical substance (yeast gene YDR343C): 20.6
The level of expressed mRNA in the presence of chemical substance/The level of expressed mRNA in the absence of chemical substance (yeast gene YDR345C): 5.6
The level of expressed mRNA in the presence of chemical substance/The level of expressed mRNA in the absence of chemical substance (yeast gene YDR387C): 1.2
The level of expressed mRNA in the presence of chemical substance/The level of expressed mRNA in the absence of chemical substance (yeast gene YDR497C): 0.6
The level of expressed mRNA in the presence of chemical substance/The level of expressed mRNA in the absence of chemical substance (yeast gene YEL027W): 3.4
The level of expressed mRNA in the presence of chemical substance/The level of expressed mRNA in the absence of chemical substance (yeast gene YEL063C): 2.4
The level of expressed mRNA in the presence of chemical substance/The level of expressed mRNA in the absence of chemical substance (yeast gene YEL065W): 1.2
The level of expressed mRNA in the presence of chemical substance/The level of expressed mRNA in the absence of chemical substance (yeast gene YER053C): 1.9
The level of expressed mRNA in the presence of chemical substance/The level of expressed mRNA in the absence of chemical substance (yeast gene YFL011W): 3.7
The level of expressed mRNA in the presence of chemical substance/The level of expressed mRNA in the absence of chemical substance (yeast gene YFL041W): 1.4
The level of expressed mRNA in the presence of chemical substance/The level of expressed mRNA in the absence of chemical substance (yeast gene YFL050C): 1.1
The level of expressed mRNA in the presence of chemical substance/The level of expressed mRNA in the absence of chemical substance (yeast gene YFL054C): 1.4
The level of expressed mRNA in the presence of chemical substance/The level of expressed mRNA in the absence of chemical substance (yeast gene YGL006W): 1.3
The level of expressed mRNA in the presence of chemical substance/The level of expressed mRNA in the absence of chemical substance (yeast gene YGL008C): 3.1
The level of expressed mRNA in the presence of chemical substance/The level of expressed mRNA in the absence of chemical substance (yeast gene YGL104C): 2.1
The level of expressed mRNA in the presence of chemical substance/The level of expressed mRNA in the absence of chemical substance (yeast gene YGL167C): 1.6
The level of expressed mRNA in the presence of chemical substance/The level of expressed mRNA in the absence of chemical substance (yeast gene YGL255W): 0.9
The level of expressed mRNA in the presence of chemical substance/The level of expressed mRNA in the absence of chemical substance (yeast gene YGR055W): 12.0
The level of expressed mRNA in the presence of chemical substance/The level of expressed mRNA in the absence of chemical substance (yeast gene YGR065C): 2.6
The level of expressed mRNA in the presence of chemical substance/The level of expressed mRNA in the absence of chemical substance (yeast gene YGR082W): 2.2
The level of expressed mRNA in the presence of chemical substance/The level of expressed mRNA in the absence of chemical substance (yeast gene YGR096W): 1.1
The level of expressed mRNA in the presence of chemical substance/The level of expressed mRNA in the absence of chemical substance (yeast gene YGR138C): 1.0
The level of expressed mRNA in the presence of chemical substance/The level of expressed mRNA in the absence of chemical substance (yeast gene YGR191W): 1.6
The level of expressed mRNA in the presence of chemical substance/The level of expressed mRNA in the absence of chemical substance (yeast gene YGR197C): 2.5
